# Where a name gives a salt, the structure may show the parent alone.
# Molecular target: CRAC channels (Homo sapiens (Human), UniProt Q96D31)
# Assay: In-vitro CRAC channel inhibition assay in Jurkat cells (thapsigargin-induced calcium influx)
# Format: cell-based
# Conditions: not given
# Protocol: Inhibition of CRAC channels was determined following thapsigargin (Sigma, Cat # T9033) induced endoplasmic calcium release in Jurkat cells. (see Yasurio Yonetoky et. al Bio. & Med. Chem. 14 (2006) 4750-4760). Cells were centrifuged and resuspended in equal volumes ° f Ca^2+ and Mg^2+ free Hanks buffer and Fluo-8 NW dye (ABD Bioquest, Inc., Sunnyvale, Calif.) loading solution at 2×10^5 cells/100 μl/well in 96-well black plate. Plate is incubated at 37° C./5% CO2 for 30 mM followed by further 15 mM incubation at room temperature. Test compounds (DMSO stocks diluted in Ca^2+ and Mg^2+ free Hanks buffer) at desired concentrations were added to the wells and incubated for […]. Thapsigargin (1 μM final concentration) was added to the wells and incubated for 15 min to inhibit the Sarco-endoplasmic reticulum Ca^2+ ATPase pump thereby depleting endoplasmic calcium and raising cytosolic calcium concentrations. Store-operated calcium entry was initiated by adding extracellular Ca^2+ to a final concentration of 1.8 mM. Fluorescence was monitored over […] on a plate reader (BMG Labtech., Germany) with excitation at 485 nm and an emission wavelength at 520 nm. Data were analyzed using GraphPad Prism. IC50 for each compound was determined based on the percent inhibition of thapsigargin-induced calcium influx into cells.
# Chain of CRAC channels (Q96D31 whole entry): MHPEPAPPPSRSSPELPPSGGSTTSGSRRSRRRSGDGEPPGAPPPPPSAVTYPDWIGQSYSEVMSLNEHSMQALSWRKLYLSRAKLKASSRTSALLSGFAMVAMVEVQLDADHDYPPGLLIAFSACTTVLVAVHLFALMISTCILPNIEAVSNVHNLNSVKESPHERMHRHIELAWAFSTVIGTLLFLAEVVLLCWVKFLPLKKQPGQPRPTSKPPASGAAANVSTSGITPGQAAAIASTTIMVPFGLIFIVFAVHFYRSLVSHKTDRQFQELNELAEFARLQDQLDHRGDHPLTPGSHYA
row,IC50,Compound
1,53.4 nM,"O=C(Nc1ccc(-n2nc(C(F)(F)F)cc2C2CC2)cc1)c1ccc2nccnc2c1 [Example 18, N-{4-[5-cyclopropyl-3-(trifluoromethyl)-1H-pyrazol-1-yl]phenyl}quinoxaline-6-carboxamide]"
2,139 nM,"O=C(Cn1nc2ccccc2n1)Nc1ccc(-n2nc(C(F)(F)F)cc2C2CC2)cc1 [Example 21, 2-(2H-benzo[d][1,2,3]triazol-2-yl)-N-{4-[5-cyclopropyl-3-(trifluoromethyl)-1H-pyrazol-1-yl]phenyl}acetamide]"
3,160 nM,"O=C(Cn1nnc2ccccc21)Nc1ccc(-n2nc(C(F)(F)F)cc2C2CC2)c(F)c1 [Example 30, 2-(1H-benzo[d][1,2,3]triazol-1-yl)-N-{4-[5-cyclopropyl-3-(trifluoromethyl)-1H-pyrazol-1-yl]-3-fluorophenyl}acetamide]"

# Same assay, conditions: 1 uM
inhibition at 1 µM,% inhibition (1 uM),Compound
39.1%,,"Cn1c(=O)c2c(ncn2CC(=O)Nc2ccc(-n3nc(C(F)(F)F)cc3C3CC3)cc2)n(C)c1=O [Example 25, N-(4-(5-cyclopropyl-3-(trifluoromethyl)-1H-pyrazol-1-yl)phenyl)-2-(1,3-dimethyl-2,6-dioxo-2,3-dihydro-1H-purin-7(6H)-yl)acetamide]"
30.9%,,"O=C(Cc1cn2ccccc2n1)Nc1ccc(-n2nc(C(F)(F)F)cc2C2CC2)cc1 [Example 26, N-{4-[5-cyclopropyl-3-(trifluoromethyl)-1H-pyrazol-1-yl)phenyl)-2-(imidazo[1,2-a]pyridin-2-yl)acetamide Hydrochloride]"
0%,,"CC(C(=O)Nc1ccc(-n2nc(C(F)(F)F)cc2C2CC2)cc1)c1ccc2ncccc2c1 (stereo not shown) [Example 28, N-{4-[5-cyclopropyl-3-(trifluoromethyl)-1H-pyrazol-1-yl]phenyl}-2-(quinolin-6-yl)propanamide Hydrochloride]"
100%,,"O=C(Cn1nnc2ccccc21)Nc1ccc(-n2nc(C(F)(F)F)cc2C2CC2)c(F)c1 [Example 30, 2-(1H-benzo[d][1,2,3]triazol-1-yl)-N-{4-[5-cyclopropyl-3-(trifluoromethyl)-1H-pyrazol-1-yl]-3-fluorophenyl}acetamide]"
50.6%,,"O=C(Nc1ccc(-n2nc(C(F)(F)F)cc2C2CC2)nc1)c1ccc2[nH]nnc2c1 [Example 31, N-{6-[5-cyclopropyl-3-(trifluoromethyl)-1H-pyrazol-1-yl]pyridin-3-yl}-1H-benzo[d][1,2,3]triazole-5-carboxamide]"
41.2%,,"O=C(Cn1nnc2ccccc21)Nc1ccc(-n2nc(C(F)(F)F)cc2C2CC2)nc1 [Example 32, 2-(1H-benzo[d][1,2,3]triazol-1-yl)-N-{6-[5-cyclopropyl-3-(trifluoromethyl)-1H-pyrazol-1-yl]pyridin-3-yl}acetamide]"
49.5%,,"O=C(Cn1nc2ccccc2n1)Nc1ccc(-n2nc(C(F)(F)F)cc2C2CC2)nc1 [Example 33, 2-(2H-benzo[d][1,2,3]triazol-2-yl)-N-{6-[5-cyclopropyl-3-(trifluoromethyl)-1H-pyrazol-1-yl]pyridin-3-yl}acetamide]"
15%,,"O=C(Cn1nnc2ccccc21)Nc1ccc(-n2nc(C(F)(F)F)c(Cl)c2C2CC2)nc1 [Example 35, 2-(1H-benzo[d][1,2,3]triazol-1-yl)-N-{6-[4-chloro-5-cyclopropyl-3-(trifluoromethyl)-1H-pyrazol-1-yl]pyridin-3-yl}acetamide]"
51%,,"O=C(NCc1ccc2ncccc2c1)c1ccc(-n2nc(C(F)(F)F)cc2C2CC2)c(F)c1 [Example 36, 4-[5-cyclopropyl-3-(trifluoromethyl)-1H-pyrazol-1-yl]-3-fluoro-N-(quinolin-6-ylmethyl)benzamide hydrochloride]"
57.3%,,"O=C(Nc1ccc(-n2nc(C3CC3)cc2C2CC2)cc1)Nc1ccc2ncccc2c1 [Example 37, 1-[4-(3,5-dicyclopropyl-1H-pyrazol-1-yl)phenyl]-3-(quinolin-6-yl)urea]"

# More lines, now with the values behind:
Compound,inhibition at 1 µM,% inhibition (1 uM)
"O=C(Nc1ccc(-n2nc(C3CC3)cc2C2CC2)cc1)c1ccc2nc[nH]c2c1 [Example 1, N-[4-(3,5-dicyclopropyl-1H-pyrazol-1-yl)phenyl]-1H-benzo[d]imidazole-6-carboxamide]",57.6%,
"O=C(Cc1c[nH]c2ccccc12)Nc1ccc(-n2nc(C3CC3)cc2C2CC2)cc1 [Example 7, N-[4-(3,5-dicyclopropyl-1H-pyrazol-1-yl)phenyl]-2-(1H-indol-3-yl)acetamide]",36.8%,
"O=C(Cc1cn2ccccc2n1)Nc1ccc(-n2nc(C3CC3)cc2C2CC2)cc1 [Example 8, N-[4-(3,5-dicyclopropyl-1H-pyrazol-1-yl)phenyl]-2-(imidazo[1,2-a]pyridin-2-yl)acetamide Hydrochloride]",17.9%,
"O=C(Cn1nnc2ccccc21)Nc1ccc(-n2nc(C3CC3)cc2C2CC2)c(F)c1 [Example 11, 2-(1H-benzo[d][1,2,3]triazol-1-yl)-N-(4-(3,5-dicyclopropyl-1H-pyrazol-1-yl)-3-fluorophenyl)acetamide]",78.6%,
"O=C(Nc1ccc(-n2nc(C3CC3)cc2C2CC2)nc1)c1ccc2ncccc2c1 [Example 13, N-[6-(3,5-dicyclopropyl-1H-pyrazol-1-yl)pyridin-3-yl]quinoline-6-carboxamide Dihydrochloride]",22.4%,
"O=C(Nc1ccc(-n2nc(C3CC3)cc2C2CC2)nc1)c1ccc2nccnc2c1 [Example 14, N-[6-(3,5-dicyclopropyl-1H-pyrazol-1-yl)pyridin-3-yl]quinoxaline-6-carboxamide]",17.8%,
"O=C(Cn1nnc2ccccc21)Nc1ccc(-n2nc(C3CC3)cc2C2CC2)nc1 [Example 15, 2-(1H-benzo[d][1,2,3]triazol-1-yl)-N-[6-(3,5-dicyclopropyl-1H-pyrazol-1-yl)pyridin-3-yl]acetamide]",3.93%,
"Cl.Cl.O=C(Cc1ccc2ncccc2c1)Nc1ccc(-n2nc(C3CC3)cc2C2CC2)nc1 [Example 16, N-[6-(3,5-dicyclopropyl-1H-pyrazol-1-yl)pyridin-3-yl]-2-(quinolin-6-yl)acetamidedihydrochloride]",,30.81%
"O=C(Nc1ccc(-n2nc(C(F)(F)F)cc2C2CC2)cc1)c1ccc2nccnc2c1 [Example 18, N-{4-[5-cyclopropyl-3-(trifluoromethyl)-1H-pyrazol-1-yl]phenyl}quinoxaline-6-carboxamide]",96.6%,
"O=C(Cn1nc2ccccc2n1)Nc1ccc(-n2nc(C(F)(F)F)cc2C2CC2)cc1 [Example 21, 2-(2H-benzo[d][1,2,3]triazol-2-yl)-N-{4-[5-cyclopropyl-3-(trifluoromethyl)-1H-pyrazol-1-yl]phenyl}acetamide]",83%,
"O=C(Cn1nnc2cccnc21)Nc1ccc(-n2nc(C(F)(F)F)cc2C2CC2)cc1 [Example 22, 2-(3H-[1,2,3]triazolo[4,5-b]pyridin-3-yl)-N-{4-[5-cyclopropyl-3-(trifluoromethyl)-1H-pyrazol-1-yl]phenyl}acetamide]",30.9%,
"C[C@@H](C(=O)Nc1ccc(-n2nc(C(F)(F)F)cc2C2CC2)cc1)n1nnc2cccnc21 [Example 23, (S)-2-(3H-[1,2,3]triazolo[4,5-b]pyridin-3-yl)-N-{4-[5-cyclopropyl-3-(trifluoromethyl)-1H-pyrazol-1-yl]phenyl}propanamide]",69.9%,

# — US8993612B2, “Modulators of calcium release-activated calcium channel and methods for treatment of non-small cell lung cancer” (Rhizen Pharmaceuticals SA, priority 2009, dated 2015)
